# Earlier results as cited in patent publication US20070185065A1, “Combination therapy for coronary artery disease” (priority 2006, published 2007).
# Read-outs that look alike come from different tables or passages of the source.
# Experiments:
# [1] = test system: patients with chronic stable angina; conditions: six weeks therapy, metoprolol 200 mg daily
# [2] = test system: proinflammatory cytokines and C-reactive protein (CRP); conditions: six weeks of therapy
# [3] = test system: patients who have had an acute MI; conditions: 160 mg twice daily
# [4] = test system: asymptomatic patients with an LVEF 40 percent after MI; conditions: mean follow-up of 42 months
# [5] = test system: patients with clinical evidence of HF post-MI
# [6] = test system: patients with systolic left ventricular dysfunction (SLVD) post-MI
# [7] = test system: patients with known CHD and an HDL-C concentration below 45 mg/dL already receiving a statin
# [8] = test system: patients with atherosclerosis not limited to MI; conditions: compared to aspirin, three year period
smiles,measurement,setting,value
COCCc1ccc(OCC(O)CNC(C)C)cc1 (centres unmarked) [metoprolol],increase in mean exercise time to 1-mm ST segment depression,"[1]; long-acting preparations, nifedipine 20 mg BID",70 s
same,frequency of angina,[1],reduced the frequency of angina
CC(=O)Oc1ccccc1C(=O)O [aspirin],markers of inflammation (proinflammatory cytokines and CRP),[2],significantly reduced
CCCCC(=O)N(Cc1ccc(-c2ccccc2-c2nnn[nH]2)cc1)[C@H](C(=O)O)C(C)C [valsartan],reduction in mortality after an MI compared to an ACE inhibitor,[3],as effective as an ACE inhibitor
C[C@H](CS)C(=O)N1CCC[C@H]1C(=O)O [captopril],reduction in hospitalization for HF,[4],22%
same,reduction in the incidence of recurrent MI,[4],25%
same,reduction in the incidence of severe HF,[4],37%
same,decrease in mortality,"[4]; versus placebo, 95% CI 3 to 32 percent",19%
same,mortality,[4]; 25 percent for placebo,20%
CCOC(=O)[C@H](CCc1ccccc1)N[C@@H](C)C(=O)N1[C@H](C(=O)O)C[C@@H]2CCC[C@@H]21 [ramipril],mortality,"[5]; 603 United Kingdom patients followed for a mean of 59 months, 39 percent placebo",28%
same,reduction in sudden death,[5]; average of 15 months follow-up,30%
same,"reduction in the incidence of severe, resistant HF",[5]; average of 15 months follow-up,23%
same,decrease in mortality,"[5]; average of 15 months follow-up, versus placebo, 95% CI 11 to 40 percent",27%
same,"incidence of severe, resistant HF","[5]; average of 15 months follow-up, 18 percent for placebo",14%
same,mortality,"[5]; average of 15 months follow-up, 23 percent with placebo",17%
same,relative risk reduction (mortality),"[5]; mean of 59 months, 95% CI 15 to 52 percent",36%
COC(=O)[C@@H]1CC2=CC(=O)CC[C@]2(C)[C@@]23O[C@@H]2C[C@@]2(C)[C@@H](CC[C@@]24CCC(=O)O4)[C@H]13 [eplerenone],reduction in combined primary endpoint of CV mortality and CV hospitalization,[6]; added to standard therapy,13%
same,reduction in CV mortality,"[6]; added to standard therapy, P=0.005",17%
same,reduction in all-cause mortality,"[6]; added to standard therapy, P=0.008",15%
same,further reduction in mortality,[6]; subgroup already receiving ACE inhibitors and beta-blockers,27%
"O=C(O)c1cccnc1 [ER niacin, niacin]",mean increase in HDL-C,"[7]; 1000 mg daily, on top of a statin",21%
same,HDL-C on treatment,"[7]; 1000 mg daily, 1.0 mmol/L at baseline",1.22 mmol/L
same,HDL-C on treatment,"[7]; 1000 mg daily, 39 mg/dL at baseline",47 mg/dL
same,"cardiovascular events, percent of patients","[7]; 9.6 percent with placebo, p=0.20",3.8%
same,increase in mean carotid intima-media thickness (CIMT),"[7]; after one year of therapy, ultrasound, p=0.23, placebo 0.044 mm",0.014 mm
"COC(=O)[C@H](c1ccccc1Cl)N1CCc2sccc2C1 [Clopidogrel, clopidogrel]",fatal or nonfatal MI,[8],significant reduction
